Drawing on ChEMBL document CHEMBL3301448, “MMV Malaria Box screening against Toxoplasma gondii and Entamoeba histolytica”, this text covers IC50 for 27 compounds.

One experiment relates to Toxoplasma gondii. Nature of the experiment: MMV: A total of 100ul of inoculum was added to each well (parasite/cell ratio, ~10:1; final volume, 200 ul). Six hours after inoculation, nonadherent parasites were removed, and 100 ul of complete DMEM (1% penicillin-streptomycin, 3% FBS) supplemented with inhibitors at different concentrations (2-fold serial dilutions starting from 30 uM) was added to all except the negative-control wells. Positive controls, consisting of pyrimethamine (PYR) and sulfadiazine (SDZ) (20-mg/ml stocks in DMSO), were tested at a 2mg/ml final concentration. Each test was performed in triplicate. It counts as functional, organism-based. The settings on record: 6 h.

The test system of another experiment is Entamoeba histolytica. Nature of the experiment: MMV: Primary screening was performed with each compound at a 30 uM final concentration and in triplicate in sealed 96-well polystyrene microtiter plates. Parasite inocula (100 ul) comprising 20000 parasites/ml were added to each well and grown at 37 degrees C in a humidified atmosphere of 5% CO2 for 72 h. Positive controls consisted of metronidazole at 1 mg/ml. The growth of E. histolytica trophozoites in each well was determined microscopically by measuring the diameters of the confluent cells in drug-containing wells relative to those in the nega- tive-control wells. The format is functional, organism-based.

One may read the IC50 as the concentration that inhibits the measured activity by half. `CCOC(=O)C1=C(C)N=c2sc(=Cc3ccccc3O)c(=O)n2C1c1ccc(OC)c2ccccc12` (centres undefined): the IC50 in the experiment on Toxoplasma gondii and in the experiment with Entamoeba histolytica was greater than 30 µM each time.

Take `FC(F)(F)c1cccc(Nc2nc3ccccc3nc2Nc2cccc(C(F)(F)F)c2)c1`: the IC50 in the experiment with Toxoplasma gondii and with Entamoeba histolytica was greater than 30 µM each time.

With `c1ccc2c(NCCCCCCNc3c4c(nc5ccccc35)CCCC4)c3c(nc2c1)CCCC3`, the IC50 with Toxoplasma gondii and with Entamoeba histolytica was greater than 30 µM throughout.

Regarding `Nc1ccc(-c2nc3cc(Cc4ccc5[nH]c(-c6ccc(N)cc6)nc5c4)ccc3[nH]2)cc1`, the IC50 with Toxoplasma gondii and in the experiment on Entamoeba histolytica was greater than 30 µM each time.

Take `CCCCOC(=O)c1ccc(Nc2cc(C)nc3ccc(OC)cc23)cc1`: the IC50 with Toxoplasma gondii and in the experiment on Entamoeba histolytica was greater than 30 µM in each case.

As to `O=c1cc(NC2CCN(CCCc3ccccc3)CC2)c2cc(Cl)ccc2o1`, the IC50 in the experiment with Toxoplasma gondii and in the experiment with Entamoeba histolytica was greater than 30 µM in each case.

In the case of `CCOc1ccc(-n2cc(-c3ccccc3)c3c(SCc4cc(C)ccc4C)ncnc32)cc1`, the IC50 with Toxoplasma gondii was 11.2 µM; with Entamoeba histolytica, greater than 30 µM.

In the case of `CC1CCN(Cc2c(O)ccc3cc(-c4nc5ccccc5s4)c(=O)oc23)CC1`, the concentration for half-maximal inhibition (IC50) in the experiment on Toxoplasma gondii and in the experiment with Entamoeba histolytica was greater than 30 µM in each case.

For `Cc1ccc2cc3c(N)c4c(C)ccc(C)c4nc3nc2c1`, the IC50 in the experiment with Toxoplasma gondii and in the experiment on Entamoeba histolytica was greater than 30 µM each time.

As for `CC(C)CCNCC(O)Cn1c2ccccc2c2ccccc21` (centres undefined), the IC50 with Toxoplasma gondii and in the experiment with Entamoeba histolytica was greater than 30 µM each time.

With `COc1ccc(C2C(C(=O)Nc3cccc(OC)c3)c3ccccc3C(=O)N2C2CCCCC2)cc1` (centres undefined), the IC50 in the experiment on Toxoplasma gondii and with Entamoeba histolytica was greater than 30 µM each time.

In the case of `c1ccc2c(NCCc3c[nH]c4ccccc34)c3ccccc3nc2c1`, the IC50 with Toxoplasma gondii was 3.05 µM; in the experiment with Entamoeba histolytica, greater than 30 µM.

As to `O=C(Nc1ccc(C23CC4CC(CC(c5ccccc5)(C4)C2)C3)cc1)c1cccs1`, the IC50 with Toxoplasma gondii and in the experiment on Entamoeba histolytica was greater than 30 µM throughout.

On to `CCOC(=O)c1cnc2c(C)cccc2c1Nc1ccc(C(C)=O)cc1`, for which the IC50 with Toxoplasma gondii and with Entamoeba histolytica was greater than 30 µM each time.

In the case of `Cc1ccc(C2CC(C(F)(F)F)n3nc(C(=O)N4CCN(C(c5ccccc5)c5ccccc5)CC4)cc3N2)cc1` (centres undefined), the IC50 in the experiment on Toxoplasma gondii and with Entamoeba histolytica was greater than 30 µM in each case.

For `Cc1ccc2nc(C)cc(Nc3cccc(C(F)(F)F)c3)c2c1`, the IC50 in the experiment with Toxoplasma gondii and with Entamoeba histolytica was greater than 30 µM each time.

Turning to `COc1cccc(C(=O)NC(c2ccc(C)cc2)c2cc(Cl)c3cccnc3c2O)c1` (centres undefined), the IC50 with Toxoplasma gondii and with Entamoeba histolytica was greater than 30 µM in each case.

In the case of `COc1ccc(-c2cc(=O)oc3c4c(ccc23)OCN(Cc2ccc(F)cc2)C4)cc1`, the half-maximal inhibitory concentration (IC50) in the experiment on Toxoplasma gondii and in the experiment with Entamoeba histolytica was greater than 30 µM each time.

Take `CCOc1ccc2c(c1)CN(Cc1ccc(Cl)cc1)CO2`: the IC50 in the experiment with Toxoplasma gondii and with Entamoeba histolytica was greater than 30 µM throughout.

Regarding `Cc1cc(=O)oc2c1ccc1oc(C(=O)c3ccccc3)c(C)c12`, the 50% inhibitory concentration (IC50) in the experiment on Toxoplasma gondii and with Entamoeba histolytica was greater than 30 µM throughout.

`COc1ccc2c(c1OC)C(=O)N1c3ccccc3N=C(c3ccc(C)cc3)CC21` (centres undefined): the IC50 with Toxoplasma gondii and in the experiment on Entamoeba histolytica was greater than 30 µM in each case.

In the case of `CCCCCCc1cc(O)c2c3c(c(=O)oc2c1)CCC(C)C3` (centres undefined), the half-maximal inhibitory concentration (IC50) in the experiment with Toxoplasma gondii and in the experiment on Entamoeba histolytica was greater than 30 µM in each case.

For `CCCc1c(C)nc2ccc(Br)cc2c1O`, the IC50 in the experiment on Toxoplasma gondii and in the experiment on Entamoeba histolytica was greater than 30 µM each time.

As for `COc1ccc(CCNC(=O)c2cc(S(=O)(=O)N3CC(C)CC(C)C3)ccc2Sc2ccc(F)cc2)cc1OC` (centres undefined), the concentration for half-maximal inhibition (IC50) with Toxoplasma gondii and in the experiment with Entamoeba histolytica was greater than 30 µM throughout.

In the case of `CCOc1ccc(Nc2c3ccccc3nc3ccccc23)cc1`, the IC50 in the experiment on Toxoplasma gondii and in the experiment with Entamoeba histolytica was greater than 30 µM throughout.

Regarding `CC1=C(CC(=O)c2cccc([N+](=O)[O-])c2)C(=O)c2ccccc2C1=O`, the IC50 in the experiment on Toxoplasma gondii and in the experiment on Entamoeba histolytica was greater than 30 µM each time.

Consider `COc1ccccc1N1C(=N)SC(=Cc2ccc(OCc3ccccc3F)cc2)C1=O`, for which the IC50 in the experiment with Toxoplasma gondii and in the experiment with Entamoeba histolytica was greater than 30 µM in each case.
